Consider one molecule from PMC4843953, “Eukaryotic elongation factor 2 kinase regulates the synthesis of microtubule‐related proteins in neurons” (Journal of Neurochemistry, 2015).

What all share (format): cell-based, mice
For assay [1], the system named is eEF2 phosphorylation. The experiment in a line: p-eEF2 levels in primary cortical neurons (immunoblot). The source says:
Primary neuronal cortical cultures were isolated from P0 or P1 C57BL/6J mice, or eEF2K‐WT or KO mice of either sex as previously described (Wong et al. 2005; Kenney et al. 2015). eEF2K mice were generated by Taconic Biosciences, Cranbury, NJ, USA; all mice were bred from colonies maintained at the Southampton General Hospital. All procedures involving mice were done in accordance with United Kingdom Animals (Scientific Procedures) Act 1986 and approved by the University of Southampton.
Figure 1 Combining pharmacological and genetic strategies with stable isotope labeling of amino acids in cell culture (SILAC)/bio‐orthogonal non‐canonical amino acid tagging (BONCAT) labeling to identify proteins whose synthesis is regulated by eEF2K. (a) Top, the effect of bicuculline administration on p‐eEF2 levels. […] Bottom, examination of the effect of bicuculline on p‐eEF2 levels in neurons from eEF2K‐WT or KO mice. Blots are representative of three to four independent experimental replicates. (b) Experimental designs for combined SILAC/BONCAT labeling to identify proteins whose synthesis are affected by eEF2K inhibition. […] Protein localization was determined using DAVID (Huang et al. 2009), or where DAVID lacked annotation, NCBI.
(§1) Immunoblot data were quantified using LICOR software (version 3.0, Lincoln, NE, USA). Data were analyzed using two‐way ANOVAs. […]

In assay [2] the test system is newly synthesized NSF. As to the kind of experiment: Newly synthesized protein, AHA labeling, streptavidin isolation and western blot. The conditions noted are these: AHA labeling 1 h; 2 × 2 ANOVA. The protocol: (§2) Neurons were starved of Met for 30 min in Met‐free neurobasal medium and then labeled for 1 h in the presence of 2 mM AHA. After labeling, neurons were washed three times in ice cold phosphate‐buffered saline (PBS) and then lysed [50 mM Tris‐HCl, 50 mM β‐glycerophosphate, 1 mM EGTA, 1 mM EDTA, 1% Triton‐X, 2 × protease inhibitors (Roche Molecular Biochemicals, Indianapolis, IN, USA)] on ice. The lysate was centrifuged at 14 000 g for 10 min at 4°C and the supernatant was used for click‐chemistry using a biotin‐alkyne (B10185; Invitrogen, Carlsbad, CA, USA) and the protein reaction kit (C10276; Invitrogen) so that only newly synthesized proteins are tagged with biotin. Un‐reacted biotin was removed via gel‐filtration (GE; PD MiniTrap G‐25) using PBS‐T (0.01% Tween) as flow‐through. […]
as §1
(§3) Figure 3 Confirmation of two eEF2K targets identified via stable isotope labeling of amino acids in cell culture (SILAC)/bio‐orthogonal non‐canonical amino acid tagging (BONCAT). […] (c) Quantification of western blot data. *p < 0.01 via 2 × 2 (bicuculline × eEF2K inhibitor) ANOVA; n = 8–9.
On the technique in general: A western blot detects proteins with antibodies after separation by electrophoresis.

In assay [3] the test system is newly synthesized PPP1CC. The description is as above. The conditions noted are these: AHA labeling 1 h; 2 × 2 ANOVA. The method, then: as §2, §1, §3
The test system of assay [4] is mRNA levels (Calm, Nsf, Ppp1 cc, Kif5a, Map2, Map1b, Arc). As to the kind of experiment: qRT-PCR of total mRNA levels in primary cortical neurons. The conditions noted are these: bicuculline 50 μM, 60 min; p < 0.001. The method, then: Neurons were treated with bicuculline (50 μM) or vehicle dimethylsulfoxide for 60 min prior to lysis. JAN‐452 or JAN‐384 was administered 30 min prior to bicuculline/vehicle. RNA was purified from cultures using the GeneJET RNA purification kit (K0731; Thermo Fisher, Waltham, MA, USA) and QIAshredder spin columns (79656; Qiagen, Valencia, CA, USA). One μg of RNA was reverse transcribed using the ImProm‐II reverse transcription system (Promega, Madison, WI, USA). qPCR was performed with 1 μL of cDNA using the GoTaq qPCR master mix (A6001; Promega) on a StepOne real‐time PCR system (Life Technologies, Grand Island, NY, USA). PCR conditions were as follows: 95°C for 2 min followed by 40 cycles of 95°C for 15 s and 60°C for 45 s. Median Ct values from samples run in triplicate were used for analysis using the ΔΔCt method with Gapdh as the control. Prior to use in experiments, all primer pairs were determined to be efficient (100 ± 10%) and yield only one appropriately sized product based on melt‐curve analysis and agarose gel electrophoresis. Primers were as follows: Calm: 5′‐[…]‐3′ and 5′‐[…]‐3′; Nsf: 5′‐ […]‐3′ and 5′‐[…]‐3′; Ppp1 cc: 5′‐ […]‐3′ and 5′‐[…]‐3′; Kif5a: 5′‐ […]‐3′ and 5′‐[…]‐3′; Map2: 5′‐ […]‐3′ and 5′‐[…]‐3′; Map1b: 5′‐ CGGACAGTGCTTTGAGAAC‐3′ and 5‐GTGAGGCTGGCTTTGTTG‐3′; Gapdh: 5′‐[…]‐3′ and 5′‐[…]‐3′; Arc: 5′‐[…]‐3′ and 5′‐[…]‐3′. […]
For orientation: Real-time PCR tracks product formation cycle by cycle.

SMILES strings stand for the structures.

As for `CN1CCc2cc3c(cc2[C@H]1[C@@H]1OC(=O)c2c1ccc1c2OCO1)OCO3` [bicuculline], the “eEF2 phosphorylation in neurons from eEF2K-KO mice” value in assay [1] (eEF2K-KO neurons, completely devoid of eEF2 phosphorylation) was “did not affect”. The “p-eEF2 level after bicuculline administration” value in assay [1] (primary cortical neurons, back to baseline levels after 60 min) is “rapid increase”. Besides, in assay [2], the “amount of newly synthesized NSF” value was “no effect”. Further, the “amount of newly synthesized PPP1CC” value in assay [3] is listed as “no effect”. In addition, the “Arc mRNA” value in assay [4] was “large increase”.
